Data: PMC12633754, “Elastase inhibition by natural flavonoids: mechanistic insights and potential therapeutic applications” (Frontiers in Nutrition, 2025)

What was measured:
[1] = biological target: T1, porcine pancreatic elastase (PPE) (Sus scrofa, UniProt P00772); assay: CD spectroscopy, secondary structure of PPE; details: PPE 5 μM, flavonoid 2.5 μM, 298 K; for α-helix (%): PPE alone 7.50; for Random coil (%): PPE alone 41.00; for β-sheet (%): PPE alone 51.50
T1 construct: purchased Sigma-Aldrich (St. Louis, MO, United States)
Description: The CD spectra of PPE, PPE-quercetin, PPE-hyperoside, PPE-luteolin, and PPE-luteoloside were obtained using an MOS-500 CD spectrometer (Biologic Science Instruments, Seyssinet-Pariset, France). […] Set at a temperature of 298 K. The signal was recorded from 190 to 260 nm using a path length of 1 mm, acquisition duration of 0.5 s, and scanning step of 2 nm. The CD spectra were averaged after performing three scans and correcting for the background value of the phosphate buffer. All results were documented as CD ellipticity in degrees.

[2] = biological target: T1, porcine pancreatic elastase (PPE); assay: Elastase inhibition assay, fluorescent substrate MeOSuc-Ala-Ala-Pro-Val-AMC; format: biochemical; details: for inhibition at 22.5 µM: read-out: Inhibition rate of PPE; for IC50: 298 K
Description: Elastase was selected as the enzyme target and MeOSuc-Ala-Ala-Pro-Val-AMC as the substrate for the enzymatic reaction. According to the principle of enzyme reactions, an in vitro target enzyme drug screening model was established by measuring the relative fluorescence intensity for drug screening and evaluation. The inhibition rate was measured using a FlexStation3 multifunctional plate reader (Molecular Devices, Shanghai, China). Elastase solution (50 μL, 5 × 10^−7 mol/L) was mixed with a fluorescent substrate (50 μL, 2 × 10^−5 mol/L), and Tris–HCl buffer solution was added to obtain a total volume of 200 μL. […] The excitation wavelength was adjusted to 380 nm, and the emission wavelength was recorded in the range 420–540 nm. A 200 μL buffer solution was used as the blank for reference. The relative fluorescence values of pure enzyme activity were recorded. Four monomer solutions of the same concentration were added separately and their relative fluorescence values were measured under the same conditions. The concentration of each monomer was varied in different samples to obtain IC50 values. Inhibition rate (%) was calculated as follows:
Inhibition rate(%)=RFUPPE−RFUDrugs+PPE/RFUPPE×100% (1)
where the relative fluorescence unit (RFU) PPE refers to the relative fluorescence measured when only PPE and the fluorescent substrate are present without any inhibitors, and RFU Drugs+PPE refers to the relative fluorescence measured when both PPE and the test drug inhibitor are present.

[3] = biological target: T1, porcine pancreatic elastase (PPE); assay: FT-IR spectra of PPE-monomer complexes; details: PPE 10 μM, flavonoid 100 μM
Description: FTIR spectra were obtained using the potassium bromide (KBr) compression method with a Nicolet IS-50 spectrometer (Thermo Fisher Scientific, Waltham, MA, United States). […] The sheets were then dried at 45 °C and pressed. Blank background for the PBS buffer sheets. The spectral region between 4,000 and 500 cm^−1 was selected to examine changes in the secondary structure resulting from enzyme-drug interactions. All samples were assayed after drying and the experimental conditions were consistent for each group of assays.

[4] = biological target: T1, porcine pancreatic elastase (PPE); assay: Fluorescence resonance energy transfer and binding distance; details: [PPE] = [flavonoid] = 10 μM, 298 K
Description: The PPE-quercetin, PPE-hyperoside, PPE-luteolin, and PPE-luteoloside binding distances were calculated according to the fluorescence resonance energy transfer theory ([31]–[33]):
J=∑FD(λ)εA(λ)λ^4Δλ/∑FD(λ)Δλ (9)
where k^2 is the dipole moment spatial orientation factor, usually taking the average 2/3; φ is the quantum efficiency of PPE, usually a quantum efficiency of Try residues of 0.15; n is the refractive index of the medium, representing the average of water and organic matter; J is the overlap integral of the absorption spectra and the fluorescence spectra; and ɛA(λ) is the molar extinction coefficient ([34]–[36]).

[5] = biological target: T1, porcine pancreatic elastase (PPE); assay: Intrinsic fluorescence quenching of PPE: Stern-Volmer, binding constants, thermodynamics; details: for ΔH / ΔS: van't Hoff, 298, 303, 310 K; for Kd: Ka binding constant
Description: Fluorescence measurements were performed using a model F-7000 fluorescence spectrometer (Hitachi, Tokyo, Japan). Elastase solution (2,000 μL in Tris–HCl buffer solution) was mixed with inhibitor solutions at different concentrations in a 1.0 cm quartz cell at 298, 303, and 310 K. The final concentrations of the four natural flavonoids and elastase were identical to those used to obtain the synchronous fluorescence spectra. The fluorescence emission spectra were recorded within the range of 285–500 nm, following excitation at 280 nm. The excitation and emission slit widths were set as 2.5 nm. The scan speed was 1,200 nm/min and the photomultiplier tube (PMT) voltage was 630 V. Fluorescence intensities were corrected for inner filter and dilution effects before analyzing the binding and quenching data.
To determine the type of fluorescence quenching of the monomer interacting with PPE, the Stern-Volmer equation was used ([20]–[22]):
F0/F=KSV[Q]+1=Kqτ0[Q]+1 (2)
where F0 and F are the fluorescence intensities of PPE before and after the addition of different monomer solutions, respectively, Ksv is the quenching constant, [Q] is the concentration of different drugs, Kq is the quenching rate constant, τ0 is the average fluorescence lifetime of the substance in the absence of a quencher, and τ0 for the general biological macromolecule is 1 × 10^−8 s ([20], [23], [24]).
According to the correction formula, the binding constant (Ka) and number of binding points (n) for the actions of the four monomers and PPE were calculated as follows ([25]–[27]):
lgF0−F/F=nlgKa−nlg1/[Q0]−[P0]F0−F/F0 (3)
where [ Q0 ] and [P0] are the drug and PPE concentrations, respectively.
where K is the binding constant of the interaction, R is the gas constant, ΔH, ΔG, and ΔS are enthalpy, Gibbs energy, and entropy change.

[6] = biological target: T1, porcine pancreatic elastase (PPE); assay: UV-vis absorption spectra of PPE with flavonoid; details: PPE 5 μM, flavonoid 15 μM, 298 K
Description: The UV–vis absorption spectra of porcine pancreatic elastase PPE (2.5 mL) were recorded using a Cary 300 spectrometer (Agilent, San Diego, CA, United States) in a quartz cuvette with a path length of 10 mm. PPE concentration was fixed at 5 μM and the drug concentrations were 0 and 15 μM. Tris–HCl solution (pH 7.6) was used as the blank. The control group was a solution of four flavonoid monomers at a final concentration of 15 μM. The spectra were recorded in the range of 200–500 nm with a slit width of 2 nm at 298 K.

[7] = biological target: T1, porcine pancreatic elastase (PPE); assay: Synchronous fluorescence spectra of PPE; details: Δλ = 60 nm, PPE 2 μM, flavonoid 0-80 μM, 298 K
Description: For the synchronous fluorescence spectroscopy experiments, the configuration of the solution preparation was the same as that used in experiment 2.3. Synchronous fluorescence spectra of PPE-quercetin, PPE-hyperoside, PPE-luteolin, and PPE-luteoloside were recorded at 298 K.

elastase = biological target: elastase; design: method as in doi:10.19894/j.issn.1000-0518.210248; details: elastase inhibition, earlier study ref 61; cited from earlier work

T1 sequence (P00772 27-266): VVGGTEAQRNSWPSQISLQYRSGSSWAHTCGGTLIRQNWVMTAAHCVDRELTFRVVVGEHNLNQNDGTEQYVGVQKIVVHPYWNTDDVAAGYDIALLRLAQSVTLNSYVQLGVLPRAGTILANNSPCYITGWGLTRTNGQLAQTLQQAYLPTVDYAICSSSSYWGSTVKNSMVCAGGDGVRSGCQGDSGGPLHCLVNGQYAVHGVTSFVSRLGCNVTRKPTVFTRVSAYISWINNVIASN

Structure (SMILES) | decrease of α-helical structure [1] [%] | α-helix (%) [1] [%] | Random coil (%) [1] [%] | inhibition at 22.5 µM [2] [%] | amide I band of PPE after addition (from 1638.45) [3] [cm⁻¹] | R0 [4] [nm] | binding distance r [4] [nm] | KSV Stern-Volmer quenching constant ([5]; 298 K) | Kq quenching rate constant ([5]; 298 K) | n number of binding sites ([5]; 298 K) | KSV Stern-Volmer quenching constant ([5]; 303 K) | Kq quenching rate constant ([5]; 303 K) | n number of binding sites ([5]; 303 K) | ΔG ([5]; 303 K) [kcal/mol] | KSV Stern-Volmer quenching constant ([5]; 310 K) | Kq quenching rate constant ([5]; 310 K) | n number of binding sites ([5]; 310 K) | ΔG ([5]; 310 K) [kcal/mol] | ΔH [5] [kcal/mol] | ΔS [5] | also measured
O=c1c(O)c(-c2ccc(O)c(O)c2)oc2cc(O)cc(O)c12 [quercetin] | 1.14 | 6.36 | 44.59 | 22.2 | 1633.59 | 1.91 | 2.82 | 0.59 10^4 L•mol^−1 | 0.59 10^12 L•mol^−1•s^−1 | 1.13 | 0.58 10^4 L•mol^−1 | 0.58 10^12 L•mol^−1•s^−1 | 0.99 | -5.208 | 0.52 10^4 L•mol^−1 | 0.52 10^12 L•mol^−1•s^−1 | 0.80 | -5.284 | -1.901 | 45.6521 J/(mol•K) | β-sheet (%) [1]: 49.05%; ΔG ([5]; 298 K): -5.153 kcal/mol
O=c1cc(-c2ccc(O)c(O)c2)oc2cc(O)cc(O)c12 [luteolin] | 0.96 | 6.54 | – | 54.3 | 1632.53 | 1.97 | 2.67 | 1.15 10^4 L•mol^−1 | 1.15 10^12 L•mol^−1•s^−1 | 0.97 | 1.04 10^4 L•mol^−1 | 1.04 10^12 L•mol^−1•s^−1 | 1.11 | -6.511 | 0.98 10^4 L•mol^−1 | 0.98 10^12 L•mol^−1•s^−1 | 1.17 | -6.52 | -6.0327 | −6.585 J/(mol•K) | IC50 [2]: 18.2 µM; blue shift of maximum absorption peak of PPE (275 nm) [6]: 3 nm; red shift of Trp synchronous fluorescence [7]: 4 nm; Kd ([5]; 298 K): 82.6 µM; Kd ([5]; 303 K): 95.2 µM; Kd ([5]; 310 K): 102 µM
O=c1c(O[C@@H]2O[C@H](CO)[C@H](O)[C@H](O)[C@H]2O)c(-c2ccc(O)c(O)c2)oc2cc(O)cc(O)c12 [hyperoside] | 1.20 | 6.30 | 46.34 | 41.1 | 1633.14 | 1.86 | 2.40 | 5.47 10^4 L•mol^−1 | 5.47 10^12 L•mol^−1•s^−1 | 1.58 | 4.85 10^4 L•mol^−1 | 4.85 10^12 L•mol^−1•s^−1 | 1.56 | -6.874 | 4.78 10^4 L•mol^−1 | 4.78 10^12 L•mol^−1•s^−1 | 1.35 | -6.881 | -6.5753 | −4.108 J/(mol•K) | β-sheet (%) [1]: 47.36%; IC50 [2]: 31 µM; blue shift of maximum absorption peak of PPE (275 nm) [6]: 4 nm; red shift of Trp synchronous fluorescence [7]: 7 nm; Kd ([5]; 298 K): 24.6 µM; Kd ([5]; 303 K): 29.6 µM; Kd ([5]; 310 K): 31.3 µM
CC(C)(C)C(=O)Oc1ccc(S(=O)(=O)Nc2ccccc2C(=O)NCC(=O)O)cc1 [sivelestat sodium] | – | – | – | – | – | – | – | – | – | – | – | – | – | – | – | – | – | – | – | – | IC50 (elastase): 9.98 µM
O=c1cc(-c2ccc(O)c(O)c2)oc2cc(O[C@@H]3O[C@H](CO)[C@@H](O)[C@H](O)[C@H]3O)cc(O)c12 [luteoloside] | 1.99 | 5.51 | 43.91 | 12.2 | 1634.55 | 1.99 | 2.71 | 1.79 10^4 L•mol^−1 | 1.79 10^12 L•mol^−1•s^−1 | 0.95 | 1.66 10^4 L•mol^−1 | 1.66 10^12 L•mol^−1•s^−1 | 0.93 | -5.92 | 1.57 10^4 L•mol^−1 | 1.57 10^12 L•mol^−1•s^−1 | 1.07 | -6.042 | -0.6989 | 72.107 J/(mol•K) | β-sheet (%) [1]: 50.58%; IC50 [2]: 61.3 µM; blue shift of maximum absorption peak of PPE (275 nm) [6]: 8 nm; red shift of Trp synchronous fluorescence [7]: 1 nm; ΔG ([5]; 298 K): -5.834 kcal/mol; Kd ([5]; 298 K): 52.4 µM; Kd ([5]; 303 K): 53.8 µM; Kd ([5]; 310 K): 55.2 µM
